EP0502205A1, “CHALCONE DERIVATIVE AND ULTRAVIOLET SCREENING COSMETIC” (NIPPON HYPOX LABORATORIES INCORPORATED, priority 1990, dated 1992)

What was measured:
[1] = system: rat abdominal cavity exudate mast cell; test: Anti-allergic activity test (inhibition of free histamine from mast cell, concanavalin A as freeing agent); format: cell-based, SD rat; conditions: 10 min, concentration of 0.03 mM, n = 5, read-out: free histamine inhibition ratio
Experimental: At first, an abdominal cavity exudate mast cell of an SD rat was obtained by a conventional method. Then, the above-obtained abdominal cavity mast cell was floated on a Locke solution, and a test substance in a predetermined concentration and phosphatidylcerine (final concentration 3 µg/ml) were added. The mixture was warmed up to 37° C, and after concanavalin A as a freeing agent was added, the mixture was maintained at 37° C for 10 minutes. Thereafter, the reaction solution was centrifugally separated to a sediment portion and a supernatant portion, and the histamine amount of each of these portions was quantitatively determined by an orthophthalaldehyde method. In addition, as a test substance, a dimethylformamide solution (final concentration 0.03 mM) of 3 mM 2',4'-dihydroxychalcone and a DMF solution (final concentration 0.03 mM) of an anti-inflammatory drug (Azelastine) were used. The free histamine ratio was calculated on the basis of the following equation. In control, the solvent alone was added. [formula] Ps: Histamine amount in sediment portion Pr: Histamine amount in supernatant portion. The free histamine inhibition ratio of the test substance was calculated on the basis of the following equation. [formula] S: Free histamine ratio when test substance is added. C: Free histamine ratio when no test substance is added (control). […]

[2] = Ultraviolet light absorption maximum and absorbance in ethanol solution; format: physicochemical; conditions: for Absorbance 300 nm / Absorbance 350 nm / Absorbance UVmax: concentration of 10 μg/ml in an ethanol solution; for Absorbance UVmax: at UVmax; for UVmax: ultraviolet light absorption maximum
[3] = system: lipid peroxidation reaction of liver microsome; test: Cell protection activity test (inhibition of lipid peroxidation, thiobarbituric acid method); format: biochemical, rat; conditions: 37° C 20 minutes, n = 3 - 5; for Inhibition ratio 10^-5 concentration: 10 µM; for Inhibition ratio 10^-4M concentration: final concentration 10^-4M, 100 µM
Experimental: Cell impairment caused by a radical reaction of an organic compound is known as one of optical affections on the skin.
First, rat liver microsome was obtained by a conventional method, and then, suspended in 1.15 % KCl to prepare a microsome suspension.
Then, the above microsome suspension in an amount of 2 mg as protein was added to a tris-HCl buffer (pH 7.4) containing NADPH (final concentration 0.2 mM), ADP (final concentration 1 mM) and FeCl₃ (final concentration 10 µM). And, 10 µl of a dimethylformamide (DMF) solution of a test compound was added so that the total amount was 1 ml, and the resultant mixture was warmed at 37° C for 20 minutes. The test compound was added such that the final concentration became 10⁻⁴M or 10⁻⁵M.
Thereafter, the amount of formed peroxidation lipid was measured by a thiobarbituric acid method. The inhibition activity of the test compound is expressed in terms of an inhibition ratio (%) in comparison with a control group. […] In addition, in the control group, 10 µl of DMF was used in place of 10 µl of the DMF solution of the test compound.

[4] = system: notal skins of Hartley guinea pigs; test: Safety test (ointment on skin under adhesive plaster, histological observation); format: in vivo; conditions: 10 mg ointment containing 5 wt.%, covered with adhesive plaster for 24 hours or 72 hours
Experimental: 10 milligrams of the ointment containing 5 wt.% of the known chalcone derivative of Example 14, obtained in Example 16, was applied to the notal skins of Hartley guinea pigs, and the applied portions were covered with an adhesive plaster for 24 hours or 72 hours.

sunburn [5] = test: Ultraviolet screening test (ointment on skin exposed to direct sunlight); format: in vivo, normally healthy persons
Experimental: 10 Milligrams of the ointment containing 1 wt.% of the known chalcone derivative in Example 14, obtained in Example 15, 10 mg of an ointment containing 1 wt.% of p-aminobenzoic acid as a control, obtained in the same manner as in Example 15 except for the use of p-aminobenzoic acid in place of the above known chalcone derivative (to be abbreviated as AO in Table 3 which will follow), and 10 mg of the same hydrophilic ointment as that used in Example 15 (to be abbreviated as HO in Table 2 which will follow) were respectively applied to the femoral region of each of normally healthy persons (10 persons) such that these became circular forms having nearly the same size. Then, these applied portions were exposed to direct sunlight outdoors in fine weather for 2 hours and 30 minutes.
After the exposure, each applied portion was visually observed. The portions where clear sunburn was recognized were taken as +, the portions where slight sunburn was recognized were taken as ±, and the portions where almost no change was recognized were taken as -. The test substances were so evaluated on their ultraviolet screening effects.
The ointment containing 1 wt.% of the novel chalcone derivative of Example 1, obtained in Example 15, the ointment containing 1 wt.% of the novel chalcone derivative of Example 1, the ointment containing 1 wt.% of the novel chalcone derivative of Example 2, the ointment containing 1 wt.% of the novel chalcone derivative of Example 4, the ointment containing 1 wt.% of the novel chalcone derivative of Example 6 and the ointment containing 1 wt.% of the known chalcone derivative of Example 9 were respectively similarly tested on their ultraviolet screening effects. However, the exposure time outdoors in fine weather was set for 1 hour. […]

sunburn [6] = test: as above; format: in vivo, normally healthy persons; remark: listed apart in the source
[7] = system: inflammation induced by an egg-white albumin-adjuvant system; test: Anti-inflammatory activity test (swelling of subplantar region of right hind paw); format: in vivo, SD rats; conditions: oral, 10 mg/weight-kg, 0.5 hour before inflammation inducer; measured 0.5, 1, 2, 3 and 4 hours after; Fig. 1
Experimental: As a test group, a comparison group and a control group, 5 male SD rats weighing 180 to 220 g were used per group. Each rat was measured for a size (volume) of the subplantar region of the right hind paw.
This aluminum hydroxide was used as an adjuvant. Per rat, a solution obtained by suspending 4 mg of the adjuvant and 0.2 mg of egg-white albumin in 0.1 ml of pertussis vaccine was prepared as an inflammation inducer.
0.5 Hour after the administration, the inflammation inducer was intracutaneously administered into the subplantar region of the right hind paw of each rat to induce swelling.
Then, 0.5, 1, 2, 3 and 4 hours after the administration of the inflammation inducer, each rat was measured for a size (volume) of the subplantar region of the right hind paw by volumetry. […] [formula] Ps: Measurement value of volume of subplantar region at a measurement time (average of the group). Po: Measurement value of volume of subplantar region before administration of inflammation inducer (average of the group).
Each rat of the control group was orally administered with a 10 % Nikkol-containing physiological saline solution in place of the 10 % Nikkol-containing physiological saline solution containing 2',4'-dihydroxychalcone. Thereafter, the same procedures as those for the test group were repeated to determine the swelling as a group.

[8] = ointment containing 1 wt.%, exposure time outdoors 1 hour
[9] = 10 mg ointment containing 1 wt.%, femoral region, 10 persons, direct sunlight 2 hours and 30 minutes

Compound	inhibition at 30 µM [1]	Absorbance 300 nm [2]	Absorbance 350 nm [2]	Absorbance UVmax [2]	UVmax [2]	Inhibition ratio 10^-5 concentration [3]	Inhibition ratio 10^-4M concentration [3]	histological comparison of skin of applied portion and skin of normal portion [4]	numbers of persons + (Clear sunburn was recognized) (sunburn [5]; [8])	numbers of persons + (Almost no change) (sunburn [6]; [8])	ultraviolet absorption spectrum (in words) ([2]; Fig. 2)	inhibition of swelling [7]	numbers of persons + (Clear sunburn was recognized) (sunburn [5]; [9])	numbers of persons - (Slight sunburn was recognized) (sunburn [5]; [9])	numbers of persons + (Almost no change) (sunburn [6]; [9])
CN1CCCC(n2nc(Cc3ccc(Cl)cc3)c3ccccc3c2=O)CC1 (centres unmarked) [Azelastine, reference compound]	20.8 ± 4.2%														
O=C(/C=C/c1cccc(F)c1)c1ccc(O)cc1O [Example 1, 2',4'-dihydroxy-3-fluoro-chalcone]		0.70~0.85	0.70~0.85	0.80~0.95	317 nm	90 % or more	90 % or more	no histological difference	0 persons	4 persons					
O=C(/C=C/c1cccc(F)c1)c1ccc(O)cc1 [Example 2]		0.90~1.00	0.45~0.55	0.90~1.20	318 nm	16%	90 % or more		0 persons	4 persons					
O=C(/C=C/c1ccc(F)cc1)c1ccc(O)cc1O [Example 4]		0.50~0.65	0.60~0.70	0.55~0.70	346 nm	90 % or more	90 % or more		0 persons	4 persons					
CCOc1ccc(/C=C/C(=O)c2ccc(O)cc2O)cc1 [Example 6]		0.20~0.40	0.60~0.75	0.80~0.95	364 nm	30%	90 % or more		0 persons	3 persons					
Cc1ccc(/C=C/C(=O)c2ccc(O)cc2O)cc1 [Example 9]		0.40~0.55	0.90~1.00	0.80~1.10	352 nm	25%	90 % or more		0 persons	4 persons					
O=C(/C=C/c1ccccc1)c1ccc(O)cc1O [Example 14, 2',4'-dihydroxychalcone]	56.9 ± 12.8%	0.65~0.75	0.60~0.70	0.70~0.80	306 nm	90 % or more	90 % or more	no difference between these two portions			has an absorption band in most of the wavelength regions of Dorno's ray and long-wavelength ultraviolet light	significantly inhibited swelling	0 persons	1 persons	9 persons
COc1ccc2c(c1)c(CC(=O)O)c(C)n2C(=O)c1ccc(Cl)cc1 [indomethacin, reference compound]												significantly inhibited swelling			
